pIC50: −log10 of the molar value. Like-named read-outs stand apart in the source and are kept apart here.
Assays:
Recombinant human PKD2 = biological target: T1, Recombinant human PKD2 (Homo sapiens, UniProt Q9BZL6); assay: Radiometric PKD kinase assay, 10-point IC50; type: biochemical
T1 sequence (Q9BZL6 1-878): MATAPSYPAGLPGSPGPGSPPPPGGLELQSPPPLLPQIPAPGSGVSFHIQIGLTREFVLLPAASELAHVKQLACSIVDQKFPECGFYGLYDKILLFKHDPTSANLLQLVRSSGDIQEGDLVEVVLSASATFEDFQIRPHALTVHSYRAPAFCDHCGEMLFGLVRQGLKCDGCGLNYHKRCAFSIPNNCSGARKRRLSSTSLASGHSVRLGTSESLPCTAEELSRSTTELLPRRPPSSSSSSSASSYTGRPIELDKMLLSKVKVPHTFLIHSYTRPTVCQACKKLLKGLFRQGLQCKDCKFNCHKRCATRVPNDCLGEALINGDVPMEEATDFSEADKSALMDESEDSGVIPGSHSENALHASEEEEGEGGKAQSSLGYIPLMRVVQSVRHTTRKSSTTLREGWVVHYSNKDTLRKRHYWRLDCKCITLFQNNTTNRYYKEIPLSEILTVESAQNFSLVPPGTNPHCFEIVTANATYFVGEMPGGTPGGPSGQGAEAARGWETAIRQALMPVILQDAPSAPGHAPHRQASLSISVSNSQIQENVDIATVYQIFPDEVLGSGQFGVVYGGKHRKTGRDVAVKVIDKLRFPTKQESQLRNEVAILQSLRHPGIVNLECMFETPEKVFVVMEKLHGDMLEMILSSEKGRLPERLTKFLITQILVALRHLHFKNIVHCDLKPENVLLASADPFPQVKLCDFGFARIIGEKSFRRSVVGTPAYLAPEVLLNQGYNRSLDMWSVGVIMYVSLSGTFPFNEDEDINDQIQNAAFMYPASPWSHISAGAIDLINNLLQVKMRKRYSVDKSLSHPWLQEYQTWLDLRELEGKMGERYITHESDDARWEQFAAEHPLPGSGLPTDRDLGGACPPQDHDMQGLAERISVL
Description: Recombinant human PKD1, 2, or 3 proteins were incubated in a mixture containing a peptide substrate derived from a PKD substrate, HDAC-5, and 10 different concentrations of the two compounds.
The IC50 values were calculated as the mean ±SEM of at least three independent experiments with triplicate determinations at each concentration of drug in each experiment. The data were plotted as a function of drug concentration and a representative graph is shown.

PKD1 [1] = biological target: T2, PKD1 (Homo sapiens, UniProt Q15139); assay: ATP competition, Lineweaver-Burk analysis of PKD1 kinase activity; type: biochemical; settings: Lineweaver-Burk plots, increasing ATP
T2 construct: GST; purchased Enzo Life sciences (Farmingdale, NY)
T2 sequence (Q15139 1-912): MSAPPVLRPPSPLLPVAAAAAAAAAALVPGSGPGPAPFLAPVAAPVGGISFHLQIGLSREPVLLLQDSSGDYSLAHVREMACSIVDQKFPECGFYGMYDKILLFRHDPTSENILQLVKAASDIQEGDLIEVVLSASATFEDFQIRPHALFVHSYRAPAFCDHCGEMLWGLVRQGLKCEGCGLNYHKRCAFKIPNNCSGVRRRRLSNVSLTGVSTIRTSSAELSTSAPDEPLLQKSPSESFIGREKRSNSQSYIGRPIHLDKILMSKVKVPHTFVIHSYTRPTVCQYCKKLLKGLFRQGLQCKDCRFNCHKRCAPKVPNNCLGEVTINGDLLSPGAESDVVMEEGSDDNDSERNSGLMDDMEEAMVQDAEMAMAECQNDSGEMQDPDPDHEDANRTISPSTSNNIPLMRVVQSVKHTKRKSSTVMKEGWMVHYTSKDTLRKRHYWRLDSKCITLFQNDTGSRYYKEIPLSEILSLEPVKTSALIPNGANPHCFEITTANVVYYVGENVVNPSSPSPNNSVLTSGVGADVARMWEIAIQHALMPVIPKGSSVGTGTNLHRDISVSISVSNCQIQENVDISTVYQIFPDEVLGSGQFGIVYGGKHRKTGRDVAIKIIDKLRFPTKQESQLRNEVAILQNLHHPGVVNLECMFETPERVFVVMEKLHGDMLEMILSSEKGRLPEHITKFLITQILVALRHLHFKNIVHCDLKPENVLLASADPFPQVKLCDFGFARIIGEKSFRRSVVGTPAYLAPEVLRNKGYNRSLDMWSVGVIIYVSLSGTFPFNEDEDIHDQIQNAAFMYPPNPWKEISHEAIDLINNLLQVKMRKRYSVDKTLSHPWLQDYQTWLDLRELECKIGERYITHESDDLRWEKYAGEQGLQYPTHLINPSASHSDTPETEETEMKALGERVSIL
Description: Lineweaver-Burk plots were generated by plotting the reciprocal of reaction velocities (1/v) against the reciprocal of ATP concentrations (1/[ATP]) at different compound concentrations. The points were fitted by linear regression.
Data presented were representative of three independent experiments.

DU145 cells = assay: Matrigel invasion assay; type: cell-based; settings: Homo sapiens, DU-145, 20 h, read-out: inhibition of cell invasion compared with control
Description: A.1-NA- PP1 blocked prostate cancer cell migration. PC3 cells were grown to confluence in 6-well plates. Monolayer was wounded and imaged immediately (0 h). […] Percentage wound healing was calculated as the percent of healed wound area as compared to the original wound. […] After 20 h, noninvasive cells were removed and invasive cells were fixed in 100% methanol, stained in 0.4% hematoxylin solution, and photographed. The number of cells that invaded the Matrigel matrix was determined by cell counts in 6 fields relative to the number of cells that migrated through the control insert. Percentage invasion was calculated as the percent of the cells invaded through Matrigel inserts vs. the total cells migrated through the control inserts. C. […] DU145 cells were infected with null, PKD1, and PKD3 adenoviruses (Adv-null, Adv-PKD1, and Adv-PKD3) at 100 MOI. […]
DU145 cells (4.0×10^4 cells/ml) in RPMI containing 0.1% fetal bovine serum (FBS) were seeded into the top chamber of BioCoat control inserts (pore size 8 µm) or BioCoat Matrigel invasion inserts with Matrigel-coated filters (BD Pharmingen). […] After staining, cells were counted under a microscope (200× magnification). The percentage invasion was determined by cell counts in […] of the number of cells that invaded the Matrigel matrix relative to the number of cells that migrated through the control insert.

[2] = tested on: DU145 cells infected with Adv-PKD1 or Adv-PKD3; type: cell-based
Description: DU145 cells were infected with null, PKD1, and PKD3 adenoviruses (Adv-null, Adv-PKD1, and Adv-PKD3) at 100 MOI. […] The number of cells that migrated was determined by cell counts in 6 fields. Percentage migration was calculated as the percent of the Adv-null treated with vehicle DMSO (set to 100%). The experiment was repeated three times and data from a representative experiment are shown.

PKD1 [3] = biological target: T2, PKD1; assay: Radiometric PKD kinase assay, 10-point IC50; type: biochemical
Description: Phosphorylation of HDAC5 was detected in a kinase reaction having 1 µCi [γ-^32P] […] The reaction was incubated at 30°C for 10 minutes and 25 µL of the reaction was spotted on Whatman P81 filter paper. The filter paper was washed 3 times in 0.5% phosphoric acid, air dried and counted using Beckman LS6500 multipurpose scintillation counter. Percent PKD1 inhibition was graphed using GraphPad Prism software 5.0.

For `CC(C)(C)n1nc(-c2cccc3ccccc23)c2c(N)ncnc21` [Compound 1-NA-PP1, 1-(t-Butyl)-3-(naphthalen-1-yl)-1H-pyrazolo[3,4-d]pyrimidin-4-amine], the pIC50 (Recombinant human PKD2; IC50 PKD2, mean ± SEM) was 6.87, the pIC50 (Recombinant human PKD2; PKD2 IC50, value printed in the figure, representative graph) was 6.88 and the “mode of PKD1 inhibition with respect to ATP” value (PKD1 [1]) was “ATP-competitive inhibitors”. The inhibition at 30 µM (DU145 cells) was over 60% and the “effect of PKD1 or PKD3 overexpression on inhibition of cell migration” value [2] was “did not affect”.
In the case of `O=C(c1ccc(Nc2nccc(-c3cc4ccccc4s3)n2)cc1)N1CCC(N2CCCC2)CC1` [IKK-16, reference compound], the pIC50 (PKD1 [3]; mean ± SEM, read-out: IC50 PKD1) was 6.81, the pIC50 (PKD1 [3]; value in the figure, read-out: PKD1 IC50) was 6.79 and the pIC50 (Recombinant human PKD2; mean ± SEM, read-out: IC50 PKD2) was 6.94. The pIC50 (Recombinant human PKD2; value in the figure, representative graph, read-out: PKD2 IC50) was 6.97 and the “mode of PKD1 inhibition with respect to ATP” value (PKD1 [1]) was “ATP-competitive inhibitors”.

From PMC3781056, “New Pyrazolopyrimidine Inhibitors of Protein Kinase D as Potent Anticancer Agents for Prostate Cancer Cells” (PLoS ONE, 2013)
